Data taken from the supplement of paper PMC10331698.
± gives the standard deviation of the averaged measurements.

Experiments:
Assay in all cases: level (log10 ratio to DMSO vehicle control); higher = higher biomarker level / cell amount than vehicle control
Conditions in all cases: in DMSO
[1] = compound: NS(=O)(=O)C(F)(F)C(F)(F)C(F)(F)C(F)(F)C(F)(F)C(F)(F)F [Perfluorohexanesulfonamide]
Procedure: (§1)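 BioMAP Diversity Plus panel of 12 human primary cell co-culture systems (3C, 4H, LPS, SAg, BT, BF4T, BE3C, CASM3C, HDF3CGF, KF3CT, MyoF, Mphg). Compounds were added 1 h before stimulation and left for 24 h (MyoF 48 h; BT 72 h for soluble read-outs or 6 d for IgG). Biomarkers were read by ELISA, cytotoxicity by SRB, PBMC viability and proliferation by Alamar Blue. Each well value was divided by the mean of 8 DMSO control wells on the same plate and log10 transformed; duplicate blinded samples were tested at 4 concentrations.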

[2] = compound: O=S(=O)(Cl)C(F)(F)C(F)(F)C(F)(F)C(F)(F)C(F)(F)C(F)(F)C(F)(F)C(F)(F)F [Perfluoro-1-octanesulfonyl chloride]
Procedure: as §1

[3] = compound: FC(F)(F)C(F)(F)C(F)(F)CC1CO1 [1H,1H-Heptafluorobutyl epoxide]
Procedure: as §1

[4] = compound: O=S(=O)(F)C(F)(F)C(F)(F)C(F)(F)C(F)(F)C(F)(F)C(F)(F)C(F)(F)C(F)(F)F [Perfluorooctanesulfonyl fluoride]
Procedure: as §1

[5] = compound: OCC(F)(F)C(F)(F)C(F)(F)CO [Hexafluoroamylene glycol]
Procedure: as §1

[6] = compound: NC(=O)C(F)(F)C(F)(F)C(F)(F)C(F)(F)F [Nonafluoropentanamide]
Procedure: as §1

Test System	level (log10) ([1]; 6700 nM)	level (log10) ([1]; 20000 nM)	level (log10) ([1]; 60000 nM)	level (log10) ([2]; 6700 nM)	level (log10) ([2]; 20000 nM)	level (log10) ([2]; 60000 nM)	level (log10) ([3]; 6700 nM)	level (log10) ([3]; 20000 nM)	level (log10) ([3]; 60000 nM)	level (log10) ([4]; 6700 nM)	level (log10) ([4]; 20000 nM)	level (log10) ([4]; 60000 nM)	level (log10) ([5]; 6700 nM)	level (log10) ([5]; 20000 nM)	level (log10) ([5]; 60000 nM)	level (log10) ([6]; 6700 nM)	level (log10) ([6]; 20000 nM)	level (log10) ([6]; 60000 nM)
3C:CCL2/MCP-1	0.0075 ± 0.0021	0.001 ± 0.014	-0.0255 ± 0.032	-0.009 ± 0.0085	-0.0025 ± 0.0092	0.017 ± 0.0014	0.0005 ± 0.0064	-0.011 ± 0.0071	-0.0025 ± 0.023	-0.014 ± 0.0014	-0.0215 ± 0.011	0.001 ± 0.021	-0.024 ± 0.013	-0.013 ± 0.0042	-0.003	-0.0045 ± 0.016	-0.0125 ± 0.018	0.011 ± 0.058
3C:CD54/ICAM-1	0.013 ± 0.011	0.002 ± 0.0085	0.0065 ± 0.0078	-0.027 ± 0.0099	-0.0215 ± 0.023	-0.0045 ± 0.0078	-0.02 ± 0.0071	-0.0135 ± 0.005	-0.003 ± 0.0057	-0.0025 ± 0.011	-0.007 ± 0.0042	0.005 ± 0.0028	-0.01 ± 0.0085	-0.0325 ± 0.005	-0.016 ± 0.023	-0.0155 ± 0.005	-0.0025 ± 0.0092	0.005 ± 0.021
3C:CD62E/E-Selectin	-0.0065 ± 0.016	-0.034 ± 0.0014	-0.0595 ± 0.013	-0.017 ± 0.0071	0.0135 ± 0.021	0.11 ± 0.021	-0.011 ± 0.023	0.002 ± 0.013	0.0075 ± 0.0035	-0.006 ± 0.0057	-0.01	-0.006 ± 0.024	-0.0185 ± 0.037	-0.021 ± 0.025	-0.012 ± 0.0014	-0.014 ± 0.025	-0.017 ± 0.031	0.0085 ± 0.011
3C:CD87/uPAR	-0.0335 ± 0.0035	-0.0565 ± 0.036	-0.137 ± 0.035	0.011 ± 0.024	-0.0065 ± 0.016	-0.199 ± 0.033	-0.0185 ± 0.026	0 ± 0.021	-0.01 ± 0.0071	-0.0125 ± 0.012	-0.0085 ± 0.012	-0.006 ± 0.0014	-0.0295 ± 0.047	-0.0235 ± 0.039	-0.0075 ± 0.029	-0.037 ± 0.0085	-0.018 ± 0.016	-0.0095 ± 0.022
3C:CD106/VCAM-1	-0.008 ± 0.0014	-0.0125 ± 0.0092	-0.025 ± 0.016	0.008 ± 0.013	0.028 ± 0.0099	0.0325 ± 0.013	-0.0315 ± 0.023	-0.0385 ± 0.013	-0.012 ± 0.011	-0.009 ± 0.0099	-0.003 ± 0.013	-0.01 ± 0.023	-0.0205 ± 0.013	-0.031 ± 0.011	-0.0065 ± 0.0092	-0.024 ± 0.028	-0.0135 ± 0.039	-0.016 ± 0.0071
3C:CD141/Thrombomodulin	-0.04 ± 0.023	-0.045 ± 0.02	0.0135 ± 0.033	0.012 ± 0.025	0.0215 ± 0.016	0.186 ± 0.0021	0.0125 ± 0.053	-0.034 ± 0.04	-0.0575 ± 0.08	-0.021 ± 0.0099	-0.0235 ± 0.026	-0.0245 ± 0.028	0.0175 ± 0.052	-0.01 ± 0.033	-0.011 ± 0.088	-0.0635 ± 0.074	-0.0235 ± 0.0035	-0.069 ± 0.051
3C:CD142/Tissue Factor	0.0005 ± 0.0078	-0.0285 ± 0.032	-0.0365 ± 0.029	-0.035 ± 0.027	0.015 ± 0.013	0.0705 ± 0.063	0.034 ± 0.0071	0 ± 0.033	0.0075 ± 0.022	-0.0085 ± 0.005	-0.0175 ± 0.0021	-0.0105 ± 0.0021	0.014 ± 0.1	0.013 ± 0.062	0.009 ± 0.1	-0.049 ± 0.041	-0.0275 ± 0.04	-0.067 ± 0.044
3C:CXCL8/IL-8	0.011 ± 0.023	0.0415 ± 0.0092	0.024 ± 0.013	0.013 ± 0.014	0.043 ± 0.013	0.16 ± 0.0099	-0.0225 ± 0.019	-0.019 ± 0.0057	0 ± 0.018	-0.006 ± 0.0085	0.002	0.0145 ± 0.019	-0.0275 ± 0.069	-0.022 ± 0.042	0.012 ± 0.028	-0.001 ± 0.016	-0.0145 ± 0.0092	0.0345 ± 0.04
3C:HLA-DR	-0.017 ± 0.0014	-0.0555 ± 0.00071	-0.125 ± 0.011	-0.0285 ± 0.0092	-0.013 ± 0.011	-0.0255 ± 0.056	0.017	0.002	0.011 ± 0.0042	-0.0045 ± 0.00071	-0.004 ± 0.0028	-0.003 ± 0.011	-0.0225 ± 0.0064	-0.0205 ± 0.00071	-0.015 ± 0.0042	-0.0095 ± 0.054	-0.007 ± 0.0099	0.003 ± 0.0014
3C:Proliferation	-0.0605 ± 0.011	-0.0635 ± 0.069	-0.334 ± 0.024	-0.003 ± 0.0042	0.009 ± 0.03	-0.112 ± 0.037	-0.0245 ± 0.028	-0.015 ± 0.033	0.004 ± 0.035	0.0125 ± 0.0092	0.0095 ± 0.016	0.0055 ± 0.046	-0.0035 ± 0.028	0.0075 ± 0.067	0.019 ± 0.03	0.028 ± 0.018	0.016 ± 0.03	-0.0145 ± 0.021
3C:SRB	-0.01 ± 0.011	-0.0125 ± 0.0078	-0.139 ± 0.014	-0.0105 ± 0.0078	0.0015 ± 0.022	-0.233 ± 0.084	0.002 ± 0.035	0.0005 ± 0.018	-0.0185 ± 0.0064	0.0035 ± 0.00071	-0.0035 ± 0.0078	-0.003 ± 0.013	-0.01 ± 0.0085	-0.0035 ± 0.021	0 ± 0.021	-0.002 ± 0.0042	0.0005 ± 0.0035	-0.011
4H:CCL26/Eotaxin-3	-0.0015 ± 0.005	-0.0285 ± 0.028	-0.1 ± 0.0071	0.012 ± 0.014	-0.066 ± 0.0071	-0.0725 ± 0.043	0.0055 ± 0.0064	-0.0365 ± 0.025	0.032 ± 0.062	0.001 ± 0.0028	-0.0025 ± 0.00071	0.0005 ± 0.005	0.0655 ± 0.0021	0.0725 ± 0.015	0.0585 ± 0.0064	-0.0005 ± 0.0035	0.0195 ± 0.00071	0.066 ± 0.017
4H:CD62P/P-selectin	-0.006 ± 0.014	0.055 ± 0.062	-0.0045 ± 0.012	0.0315 ± 0.012	0.0485 ± 0.018	0.084 ± 0.031	-0.015 ± 0.0099	-0.007 ± 0.0014	0.0455 ± 0.046	0.061 ± 0.021	-0.034 ± 0.079	-0.0275 ± 0.0064	-0.029 ± 0.095	0.014 ± 0.058	-0.0385 ± 0.0021	-0.0135 ± 0.043	-0.0075 ± 0.029	0.0075 ± 0.05
4H:CD87/uPAR	-0.01 ± 0.011	0.0115 ± 0.013	-0.0605 ± 0.047	-0.0165 ± 0.054	-0.023 ± 0.048	-0.117 ± 0.053	-0.0465 ± 0.06	-0.055 ± 0.045	-0.006 ± 0.021	0.013 ± 0.028	0.008 ± 0.033	0.001 ± 0.0042	0.0015 ± 0.0021	-0.0205 ± 0.037	-0.027 ± 0.023	-0.032 ± 0.0071	0.0085 ± 0.005	0.009 ± 0.041
4H:CD106/VCAM-1	-0.0245 ± 0.011	-0.0165 ± 0.015	-0.08 ± 0.034	-0.0025 ± 0.052	-0.0035 ± 0.023	-0.0305 ± 0.0064	-0.0035 ± 0.033	0.0125 ± 0.073	0.007 ± 0.078	0.0005 ± 0.015	-0.0105 ± 0.012	-0.012 ± 0.011	0.0165 ± 0.029	0.0075 ± 0.013	0.033 ± 0.017	0.003 ± 0.0028	0.0095 ± 0.0064	0.008 ± 0.013
4H:SRB	-0.01 ± 0.0085	-0.028 ± 0.0099	-0.101 ± 0.0014	-0.0105 ± 0.0078	0 ± 0.014	-0.0495 ± 0.061	0.008 ± 0.023	0.007 ± 0.0057	-0.02 ± 0.0071	0.0015 ± 0.00071	0.001 ± 0.0028	-0.0035 ± 0.0064	-0.0055 ± 0.0035	-0.004 ± 0.0071	0.005 ± 0.02	-0.0055 ± 0.00071	-0.0055 ± 0.011	0.0055 ± 0.021
